Experimental data as given in the supplement of paper PMC10307832.

Legend:
Assay in all cases: relative viability (nuclei count vs DMSO), 5 days (fraction); higher = more cells survive
NCI-H1975 = conditions: first compound 0.2 µM
How it was run: (§1)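 Relative viability is defined as nuclei in treated wells over nuclei in vehicle wells. Duplicate plates were run and medians reported. Lung cancer cell lines in 1536-well plates were dosed by pin tool one day after seeding, with one drug or with a fixed anchor-drug dose plus five library-drug doses (not always all listed) in √10 steps, and nuclei were counted after 5 days.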

NCI-H2126 = test system: NCI-H2126
How it was run: as §1

NCI-H2228 = test system: NCI-H2228
How it was run: as §1

NCI-H23 = test system: NCI-H23
How it was run: as §1

NCI-H2405 = test system: NCI-H2405
How it was run: as §1

NCI-H3122 = test system: NCI-H3122
How it was run: as §1

NCI-H596 = test system: NCI-H596
How it was run: as §1

NCI-H650 = test system: NCI-H650
How it was run: as §1

NCI-H661 = test system: NCI-H661
How it was run: as §1

PC-3 [JPC-3] = test system: PC-3 [JPC-3]
How it was run: as §1

SK-LU-1 = test system: SK-LU-1
How it was run: as §1

SW 900 = test system: SW 900
How it was run: as §1

Q: Which relative viability (NCI-H1975) does the source give for `CCNC(=O)c1noc(-c2cc(C(C)C)c(O)cc2O)c1-c1ccc(CN2CCOCC2)cc1` [Luminespib] + Nc1nc2[nH]cc(CCc3ccc(C(=O)N[C@@H](CCC(=O)O)C(=O)O)cc3)c2c(=O)[nH]1 [Pemetrexed] (partner 0.2 µM) here?
A: The relative viability was 0.153.

Q: And the relative viability (NCI-H2126; first compound 0.002 µM)?
A: Its relative viability is 0.705.

Q: What about the relative viability (NCI-H2126; first compound 0.006325 µM) of the same compound?
A: The relative viability was 0.626.

Q: What about the relative viability (NCI-H2126; first compound 0.06325 µM) of the same compound?
A: Its relative viability is 0.479.

Q: And the relative viability (NCI-H2126; first compound 0.2 µM)?
A: The relative viability was 0.181.

Q: And the relative viability (NCI-H2228; first compound 0.002 µM)?
A: The relative viability was 0.346.

Q: What about the relative viability (NCI-H2228; first compound 0.006325 µM) of the same compound?
A: Its relative viability is 0.405.

Q: And the relative viability (NCI-H2228; first compound 0.02 µM)?
A: Its relative viability is 0.257.

Q: What about the relative viability (NCI-H2228; first compound 0.06325 µM) of the same compound?
A: The relative viability was 0.079.

Q: What about the relative viability (NCI-H2228; first compound 0.2 µM) of the same compound?
A: Its relative viability is 0.136.

Q: What about the relative viability (NCI-H23; first compound 0.002 µM) of the same compound?
A: The relative viability was 0.743.

Q: What about the relative viability (NCI-H23; first compound 0.006325 µM) of the same compound?
A: The relative viability was 0.655.

Q: And the relative viability (NCI-H23; first compound 0.02 µM)?
A: The relative viability was 0.391.

Q: What about the relative viability (NCI-H23; first compound 0.06325 µM) of the same compound?
A: The relative viability was 0.139.

Q: What about the relative viability (NCI-H23; first compound 0.2 µM) of the same compound?
A: Its relative viability is 0.14.

Q: And the relative viability (NCI-H2405; first compound 0.002 µM)?
A: Its relative viability is 1.08.

Q: What about the relative viability (NCI-H2405; first compound 0.02 µM) of the same compound?
A: The relative viability was 0.915.

Q: And the relative viability (NCI-H2405; first compound 0.06325 µM)?
A: The relative viability was 0.183.

Q: And the relative viability (NCI-H2405; first compound 0.2 µM)?
A: The relative viability was 0.179.

Q: What about the relative viability (NCI-H3122; first compound 0.002 µM) of the same compound?
A: Its relative viability is 0.203.

Q: What about the relative viability (NCI-H3122; first compound 0.006325 µM) of the same compound?
A: Its relative viability is 0.182.

Q: What about the relative viability (NCI-H3122; first compound 0.02 µM) of the same compound?
A: Its relative viability is 0.184.

Q: What about the relative viability (NCI-H3122; first compound 0.06325 µM) of the same compound?
A: The relative viability was 0.135.

Q: And the relative viability (NCI-H3122; first compound 0.2 µM)?
A: Its relative viability is 0.111.

Q: And the relative viability (NCI-H596; first compound 0.002 µM)?
A: Its relative viability is 0.526.

Q: And the relative viability (NCI-H596; first compound 0.006325 µM)?
A: Its relative viability is 0.493.

Q: What about the relative viability (NCI-H596; first compound 0.02 µM) of the same compound?
A: Its relative viability is 0.548.

Q: And the relative viability (NCI-H596; first compound 0.06325 µM)?
A: The relative viability was 0.518.

Q: What about the relative viability (NCI-H596; first compound 0.2 µM) of the same compound?
A: The relative viability was 0.528.

Q: And the relative viability (NCI-H650; first compound 0.002 µM)?
A: Its relative viability is 0.925.

Q: What about the relative viability (NCI-H650; first compound 0.006325 µM) of the same compound?
A: Its relative viability is 0.983.

Q: What about the relative viability (NCI-H650; first compound 0.02 µM) of the same compound?
A: Its relative viability is 0.625.

Q: And the relative viability (NCI-H650; first compound 0.06325 µM)?
A: The relative viability was 0.257.

Q: What about the relative viability (NCI-H650; first compound 0.2 µM) of the same compound?
A: Its relative viability is 0.113.

Q: What about the relative viability (NCI-H661; first compound 0.002 µM) of the same compound?
A: Its relative viability is 0.921.

Q: What about the relative viability (NCI-H661; first compound 0.006325 µM) of the same compound?
A: The relative viability was 0.863.

Q: And the relative viability (NCI-H661; first compound 0.02 µM)?
A: Its relative viability is 0.966.

Q: And the relative viability (NCI-H661; first compound 0.06325 µM)?
A: Its relative viability is 0.651.

Q: What about the relative viability (NCI-H661; first compound 0.2 µM) of the same compound?
A: Its relative viability is 0.318.

Q: What about the relative viability (PC-3 [JPC-3]; first compound 0.002 µM) of the same compound?
A: Its relative viability is 0.706.

Q: And the relative viability (PC-3 [JPC-3]; first compound 0.006325 µM)?
A: The relative viability was 0.342.

Q: What about the relative viability (PC-3 [JPC-3]; first compound 0.02 µM) of the same compound?
A: Its relative viability is 0.681.

Q: And the relative viability (PC-3 [JPC-3]; first compound 0.06325 µM)?
A: Its relative viability is 0.357.

Q: What about the relative viability (PC-3 [JPC-3]; first compound 0.2 µM) of the same compound?
A: The relative viability was 0.272.

Q: And the relative viability (SK-LU-1; first compound 0.002 µM)?
A: The relative viability was 1.01.

Q: And the relative viability (SK-LU-1; first compound 0.006325 µM)?
A: The relative viability was 0.779.

Q: And the relative viability (SK-LU-1; first compound 0.02 µM)?
A: Its relative viability is 0.825.

Q: And the relative viability (SK-LU-1; first compound 0.06325 µM)?
A: The relative viability was 0.244.

Q: What about the relative viability (SK-LU-1; first compound 0.2 µM) of the same compound?
A: Its relative viability is 0.206.

Q: And the relative viability (SW 900; first compound 0.002 µM)?
A: Its relative viability is 0.492.

Q: What about the relative viability (SW 900; first compound 0.006325 µM) of the same compound?
A: The relative viability was 0.512.

Q: And the relative viability (SW 900; first compound 0.02 µM)?
A: Its relative viability is 0.427.

Q: What about the relative viability (SW 900; first compound 0.06325 µM) of the same compound?
A: The relative viability was 0.133.

Q: And the relative viability (SW 900; first compound 0.2 µM)?
A: The relative viability was 0.146.
